In patent US20240166641A1, “HETEROCYCLES AND USES THEREOF” (Kumquat Biosciences Inc., priority 2021, published 2024):

How the values were obtained:
PTPN2 = molecular target: T1, PTPN2 (Homo sapiens, UniProt P17706); experiment: Phosphatase activity assay (Bio-Biochem-DiFMUP), PTPN2; type: biochemical; settings: DiFMUP substrate, room temperature
T1 sequence (P17706 1-415): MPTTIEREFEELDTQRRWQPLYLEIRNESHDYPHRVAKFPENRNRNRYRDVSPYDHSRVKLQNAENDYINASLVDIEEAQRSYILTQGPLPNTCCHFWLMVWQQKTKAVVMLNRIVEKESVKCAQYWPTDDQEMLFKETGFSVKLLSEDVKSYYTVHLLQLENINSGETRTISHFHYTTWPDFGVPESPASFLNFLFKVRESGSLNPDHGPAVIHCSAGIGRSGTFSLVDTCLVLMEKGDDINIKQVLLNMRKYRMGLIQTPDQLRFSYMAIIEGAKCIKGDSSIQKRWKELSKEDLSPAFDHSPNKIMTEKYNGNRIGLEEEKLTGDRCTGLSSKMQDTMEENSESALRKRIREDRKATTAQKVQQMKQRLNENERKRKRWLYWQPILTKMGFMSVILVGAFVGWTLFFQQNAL
Excerpt: (§1) The selectivity and potency of a small molecule PTPN2 inhibitor as provided herein (e.g., a derivative of Formula I, II, III, IV; or sub-formulae thereof) against one or more protein tyrosine phosphatase (PTP) enzymes, and specifically against PTPN2, can be assessed in various ways. The one or more PTP enzymes comprise Mycobacterium protein tyrosine phosphatase A (mPTPA), Mycobacterium protein tyrosine phosphatase B (mPTPB), PTPN1 (i.e., PTP1B), PTPN2 (i.e., TC-PTP), SHP-1, SHP-2, FAP-1, Meg2, HePTP, Laforin, VHX, VHR, LMWPTP, Cdcl4A, LAR, CD45, PTPRG, a fragment thereof, a variant thereof, and a combination thereof. Selectivity and potency of a small molecule PTPN2 inhibitor is evaluated using a PTP activity inhibition assay. The assay is performed using a buffer comprising 50 millimolar (mM) Bis-Tris (pH=6.3), 2 mM EDTA, and 5 mM N,N′-dimethyl-N,N′-bis(mercaptoacetyl)hydrazine (DMH). The assay is performed using a phosphated substrate, e.g., 10 mM fluorescein diphosphate (FDP) that is stored at −20° C. Alternatively or in addition to, the assay is performed using 10 mM DiFMUP as a phosphated substrate. Each PTP enzyme is diluted in an enzyme dilution buffer comprising 50 mM Bis-Tris (pH=6.3), 2 mM EDTA, 5 mM DMH, 20% (vol./vol.) glycerol, and 0.01% (vol./vol.) Triton X-100.
(§2) The assay is carried out at room temperature in 96 well plates. A reaction mixture of 170 microliter (μL) of the assay buffer comprising 10 μM FDP or DiFMIUP is added to each well. A 10 μL volume of (i) a compound disclosed herein (e.g., PTPN2 inhibitor) dissolved in DMSO at one of 10 concentrations from a serial dilution or (ii) DMSO alone for control is added to each well. The reaction is initiated by adding 20 μL of a PTP enzyme (e.g., PTPN2) that is diluted in the enzyme dilution buffer. The phosphatase activity of the PTP enzyme is assessed by monitoring appearance of a fluorescent product (e.g., fluorescein monophosphate (FMP) from FDP, or 6,8-difluoro-7-hydroxyl-4-coumarin (DiFMU) from DiFMUP) continuously for about 15 to 30 minutes, using the SpectraMax® Gemini™ XPS Microplate Spectrofluorometer (Molecular Devices®) with excitation of 440 nm and emission at 530 nm (cutoff filter at 525 nm) for FMP and excitation at 360 nm and emission at 450 nm (cutoff filter at 435 nm) for DiFMU. The rate (e.g., the initial rate) of FMP or DiFMU formation is plotted against the concentration of the small molecule PTPN2 inhibitor, and the data is fitted (e.g., using a 4-parameter equation) to determine the inflection point of the fit as the IC50 of the small molecule PTPN2 inhibitor for a specific enzyme. Table 6 summarizes the IC50 values of compounds disclosed herein against PTPN2 and PTPN1.

PTP1B = molecular target: T2, PTP1B (Homo sapiens, UniProt P18031); experiment: Phosphatase activity assay (Bio-Biochem-DiFMUP), PTP1B; type: biochemical; settings: DiFMUP substrate, room temperature
T2 sequence (P18031 1-435): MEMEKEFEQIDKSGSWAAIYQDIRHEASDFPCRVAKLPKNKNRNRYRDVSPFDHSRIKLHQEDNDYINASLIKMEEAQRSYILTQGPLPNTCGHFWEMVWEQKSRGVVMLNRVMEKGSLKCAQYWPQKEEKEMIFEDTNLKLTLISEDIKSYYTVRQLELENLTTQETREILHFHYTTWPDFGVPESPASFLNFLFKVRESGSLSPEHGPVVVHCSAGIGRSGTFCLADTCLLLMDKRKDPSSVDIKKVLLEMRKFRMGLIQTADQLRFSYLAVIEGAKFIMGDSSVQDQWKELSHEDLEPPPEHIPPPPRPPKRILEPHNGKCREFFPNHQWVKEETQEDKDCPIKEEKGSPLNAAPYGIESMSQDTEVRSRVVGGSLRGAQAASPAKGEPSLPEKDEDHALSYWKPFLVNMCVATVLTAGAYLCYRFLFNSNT
Excerpt: as §1, §2

Row | SMILES | IC50 (PTPN2) [nM] | IC50 (PTP1B) [nM]
1 | O=C1CN(c2cc3nc(NCCc4ccccn4)ccc3cc2O)S(=O)(=O)N1 [Compound 126] | ≤ 1000 | ≤ 1000
2 | Cn1c(=O)c(NCCN2CCOCC2)cc2cc(N3CC(=O)NS3(=O)=O)c(O)cc21 [Compound 127] | ≤ 1000 | ≤ 1000
3 | O=C1CN(c2cc3nc(OCCN4CCOCC4)ccc3cc2O)S(=O)(=O)N1 [Compound 131] | > 10000 | > 10000
4 | CC(C)CCNC(=O)c1cc2cc(N3CC(=O)NS3(=O)=O)c(O)cc2s1 [Compound 132] | ≤ 1000 | ≤ 1000
5 | Cn1c(=O)c(N2CCCC2)cc2cc(N3CC(=O)NS3(=O)=O)c(O)cc21 [Compound 134] | 1000 to 10000 | ≤ 1000
6 | CC(C)CCNc1ccc2cc(O)c(N3C(C)C(=O)NS3(=O)=O)cc2n1 (stereo not shown) [Compound 137, 5-(6-hydroxy-2-(isopentylamino)quinolin-7-yl)-4-methyl-1,2,5-thiadiazolidin-3-one 1,1-dioxide] | ≤ 1000 | ≤ 1000
7 | CC(C)OCCNc1ccc2cc(O)c(N3CC(=O)NS3(=O)=O)cc2n1 [Compound 138] | ≤ 1000 | ≤ 1000
8 | Cn1c(=O)c(NCCOC2CCCC2)cc2cc(N3CC(=O)NS3(=O)=O)c(O)cc21 [Compound 140] | 1000 to 10000 | ≤ 1000
9 | Cn1c(=O)c(NCCC2CCCCC2)cc2cc(N3CC(=O)NS3(=O)=O)c(O)cc21 [Compound 141] | ≤ 1000 | ≤ 1000
10 | CC(C)CCNc1cnc2cc(O)c(N3CC(=O)NS3(=O)=O)cc2c1 [Compound 142, 5-(7-hydroxy-3-(isopentylamino)quinolin-6-yl)-1,2,5-thiadiazolidin-3-one 1,1-dioxide] | ≤ 1000 | ≤ 1000
11 | CC(C)CCNc1cc2cc(N3CC(=O)NS3(=O)=O)c(O)cc2n(C2CC2)c1=O [Compound 145] | ≤ 1000 | ≤ 1000
12 | COc1cc2c(F)c(N3CC(=O)NS3(=O)=O)c(O)cc2n(C)c1=O [Compound 146] | ≤ 1000 | ≤ 1000
13 | O=C1CN(c2cc3nc(C4CCOC4)ccc3cc2O)S(=O)(=O)N1 (stereo not shown) [Compound 147] | 1000 to 10000 | ≤ 1000
14 | Cn1c(=O)c(NCCCC#N)cc2cc(N3CC(=O)NS3(=O)=O)c(O)cc21 [Compound 148] | ≤ 1000 | ≤ 1000
15 | CC(C)CCCc1cc2cc(N3CC(=O)NS3(=O)=O)c(O)cc2n(C)c1=O [Compound 152] | ≤ 1000 | ≤ 1000
16 | CC(C)Oc1cc2c(F)c(N3CC(=O)NS3(=O)=O)c(O)cc2n(C)c1=O [Compound 156] | ≤ 1000 | ≤ 1000
17 | CC(C)CCn1ccc2cc(O)c(N3CC(=O)NS3(=O)=O)c(F)c2c1=O [Compound 157] | 1000 to 10000 | 1000 to 10000
18 | N#Cc1cccc(CCOc2ccc3cc(O)c(N4CC(=O)NS4(=O)=O)cc3n2)c1 [Compound 159] | ≤ 1000 | ≤ 1000
19 | CC(C)CCOc1cc2cc(N3CC(=O)NS3(=O)=O)c(O)cc2n(C)c1=O [Compound 160] | ≤ 1000 | ≤ 1000
20 | Cn1c(=O)c(C#N)cc2cc(N3CC(=O)NS3(=O)=O)c(O)cc21 [Compound 161] | > 10000 | > 10000
21 | C[C@@H](Nc1cc2cc(N3CC(=O)NS3(=O)=O)c(O)cc2n(C)c1=O)c1ccccc1 [Compound 162] | ≤ 1000 | ≤ 1000
22 | O=C1CN(c2cc3nc(OCCN4CCC4)ccc3cc2O)S(=O)(=O)N1 [Compound 163] | > 10000 | > 10000

Row | SMILES | IC50 (PTPN2) [nM] | IC50 (PTP1B) [nM]
23 | Cn1c(=O)c(NCCC#N)cc2cc(N3CC(=O)NS3(=O)=O)c(O)cc21 [Compound 164] | ≤ 1000 | ≤ 1000
24 | CCN1CCC(Nc2cc3cc(N4CC(=O)NS4(=O)=O)c(O)cc3n(C)c2=O)CC1 [Compound 166] | 1000 to 10000 | 1000 to 10000
25 | O=C1CN(c2cc3nc(OCCc4ccccc4)ccc3cc2O)S(=O)(=O)N1 [Compound 167] | ≤ 1000 | ≤ 1000
26 | Cn1c(=O)c(NCCC2CC2)cc2cc(N3CC(=O)NS3(=O)=O)c(O)cc21 [Compound 168] | 1000 to 10000 | ≤ 1000
27 | Cn1c(=O)c(N2CCCCC2)cc2cc(N3CC(=O)NS3(=O)=O)c(O)cc21 [Compound 169] | 1000 to 10000 | 1000 to 10000
28 | O=C1CN(c2cc3cc(C(=O)NCCc4ccccc4)sc3cc2O)S(=O)(=O)N1 [Compound 170] | ≤ 1000 | ≤ 1000
29 | CCN1CCC(CNc2cc3cc(N4CC(=O)NS4(=O)=O)c(O)cc3n(C)c2=O)CC1 [Compound 171] | ≤ 1000 | ≤ 1000
30 | CN(C)C1CN(c2cc3cc(N4CC(=O)NS4(=O)=O)c(O)cc3n(C)c2=O)C1 [Compound 172] | 1000 to 10000 | 1000 to 10000
31 | Cn1c(=O)c(NCC(C)(F)F)cc2cc(N3CC(=O)NS3(=O)=O)c(O)cc21 [Compound 173] | ≤ 1000 | ≤ 1000
32 | CCN1CC(Nc2cc3cc(N4CC(=O)NS4(=O)=O)c(O)cc3n(C)c2=O)C1 [Compound 174] | 1000 to 10000 | ≤ 1000
33 | N#CCCCOc1ccc2cc(O)c(N3CC(=O)NS3(=O)=O)cc2n1 [Compound 175] | ≤ 1000 | ≤ 1000
34 | Cn1c(=O)c(NCc2ccccc2)cc2cc(N3CC(=O)NS3(=O)=O)c(O)cc21 [Compound 177] | ≤ 1000 | ≤ 1000
35 | Cn1c(=O)c(NCCC2CCCC2)cc2c(F)c(N3CC(=O)NS3(=O)=O)c(O)cc21 [Compound 179] | ≤ 1000 | ≤ 1000
36 | Cn1c(=O)c(NCc2ccccc2)cc2c(F)c(N3CC(=O)NS3(=O)=O)c(O)cc21 [Compound 180] | ≤ 1000 | ≤ 1000
37 | CC(C)CC#Cc1cc2cc(N3CC(=O)NS3(=O)=O)c(O)cc2n(C)c1=O [Compound 181] | ≤ 1000 | ≤ 1000
38 | CC(C)CCOc1ccc2cc(O)c(N3CC(=O)NS3(=O)=O)cc2n1 [Compound 182] | ≤ 1000 | ≤ 1000
39 | Cn1c(=O)c(O)cc2c(F)c(N3CC(=O)NS3(=O)=O)c(O)cc21 [Compound 184] | 1000 to 10000 | ≤ 1000
40 | CC(C)CCNc1ccc2cc(O)c(N3CC(=O)NS3(=O)=O)cc2n1 [Compound 187] | > 10000 | > 10000
41 | O=C1CN(c2cc3nc(-c4cnn(CC5CC5)c4)ccc3cc2O)S(=O)(=O)N1 [Compound 188] | ≤ 1000 | ≤ 1000
42 | O=C1CN(c2cc3nc(OCCc4ccc(F)cc4)ccc3cc2O)S(=O)(=O)N1 [Compound 189] | ≤ 1000 | ≤ 1000
43 | Cn1c(=O)c(NC2CCN(S(C)(=O)=O)C2)cc2cc(N3CC(=O)NS3(=O)=O)c(O)cc21 (stereo not shown) [Compound 191] | ≤ 1000 | ≤ 1000
44 | Cn1c(=O)c(NCCCCC#N)cc2cc(N3CC(=O)NS3(=O)=O)c(O)cc21 [Compound 193] | ≤ 1000 | ≤ 1000
